Measurements as given in publication PMC5218480 (PLoS ONE, 2017).

Test system: MV-4-11 cells
Assay: Gene expression microarray analysis (Affymetrix PrimeView) and GSEA
Format: cell-based, human
Set-up: RFU PODN (11730768_x_at) / Fold change /veh PODN (11730768_x_at) / RFU LINC00158 (11744669_a_at) / Fold change /veh LINC00158 (11744669_a_at) / RFU DUSP10 (11751237_a_at) / Fold change /veh DUSP10 (11751237_a_at) / RFU ID3 (11757404_x_at) / Fold change /veh ID3 (11757404_x_at) / RFU PLEKHG5 (11737974_s_at) / Fold change /veh PLEKHG5 (11737974_s_at) / RFU LRRC4B (11730491_at) / Fold change /veh LRRC4B (11730491_at) / RFU GIMAP4 (11747438_a_at) / Fold change /veh GIMAP4 (11747438_a_at) / RFU KRT8 (11758183_x_at) / Fold change /veh KRT8 (11758183_x_at) / RFU CNN1 (11734310_a_at) / Fold change /veh CNN1 (11734310_a_at) / RFU VPS37D (11726825_at) / Fold change /veh VPS37D (11726825_at) / RFU C10orf10 (11716522_x_at) / Fold change /veh C10orf10 (11716522_x_at) / RFU KIR2DL2 /// KIR2DL4 /// KIR2DL5A /// KIR2DL5B /// KIR2DS1 /// KIR2DS2 /// KIR2DS3 /// KIR2DS4 /// KIR3DL3 /// KIR3DL3 /// KIR3DS1 (11738374_at) / Fold change /veh KIR2DL2 /// KIR2DL4 /// KIR2DL5A /// KIR2DL5B /// KIR2DS1 /// KIR2DS2 /// KIR2DS3 /// KIR2DS4 /// KIR3DL3 /// KIR3DL3 /// KIR3DS1 (11738374_at) / RFU C1QL1 (11718748_at) / Fold change /veh C1QL1 (11718748_at) / RFU TMPRSS4 (11747572_a_at) / Fold change /veh TMPRSS4 (11747572_a_at) / RFU HAMP (11756126_x_at) / Fold change /veh HAMP (11756126_x_at) / RFU RNFT2 (11725882_a_at) / Fold change /veh RNFT2 (11725882_a_at) / RFU NR4A2 (11747474_a_at) / Fold change /veh NR4A2 (11747474_a_at) / RFU ABCC12 (11746883_a_at) / Fold change /veh ABCC12 (11746883_a_at) / RFU TMEM136 (11760407_x_at) / Fold change /veh TMEM136 (11760407_x_at) / RFU CLDN22 /// WWC2 (11732394_at) / Fold change /veh CLDN22 /// WWC2 (11732394_at) / RFU HLA-DPB1 (11760878_x_at) / Fold change /veh HLA-DPB1 (11760878_x_at) / RFU SPINT1 (11716480_a_at) / Fold change /veh SPINT1 (11716480_a_at) / RFU GAP43 (11754022_s_at) / Fold change /veh GAP43 (11754022_s_at) / RFU A4GNT (11735810_at) / Fold change /veh A4GNT (11735810_at) / RFU PRB3 (11715151_x_at) / Fold change /veh PRB3 (11715151_x_at) / RFU TUBB4B (11761932_at) / Fold change /veh TUBB4B (11761932_at) / RFU CAPN14 (11732068_a_at) / Fold change /veh CAPN14 (11732068_a_at) / RFU TMCC2 (11721928_a_at) / Fold change /veh TMCC2 (11721928_a_at) / RFU IRGQ (11745062_a_at) / Fold change /veh IRGQ (11745062_a_at) / RFU FAM174B (11720279_a_at) / Fold change /veh FAM174B (11720279_a_at) / RFU TMPRSS4 (11748680_a_at) / Fold change /veh TMPRSS4 (11748680_a_at) / RFU FAM212B (11763350_a_at) / Fold change /veh FAM212B (11763350_a_at) / RFU PLEKHG5 (11743358_a_at) / Fold change /veh PLEKHG5 (11743358_a_at) / RFU ZSCAN30 (11745921_a_at) / Fold change /veh ZSCAN30 (11745921_a_at) / RFU CMKLR1 (11741424_a_at) / Fold change /veh CMKLR1 (11741424_a_at) / RFU LOC101060620 /// MAPK8IP1 (11723275_at) / Fold change /veh LOC101060620 /// MAPK8IP1 (11723275_at) / RFU SPTSSB (11747773_x_at) / Fold change /veh SPTSSB (11747773_x_at) / RFU PRSS12 (11739890_at) / Fold change /veh PRSS12 (11739890_at) / RFU BIN1 (11741810_x_at) / Fold change /veh BIN1 (11741810_x_at) / RFU WNT11 (11732464_a_at) / Fold change /veh WNT11 (11732464_a_at) / RFU C10orf10 (11716521_a_at) / Fold change /veh C10orf10 (11716521_a_at) / RFU C5orf56 (11738089_at) / Fold change /veh C5orf56 (11738089_at) / RFU CYB561 (11721691_x_at) / Fold change /veh CYB561 (11721691_x_at) / RFU ANKRD19P (11752326_a_at) / Fold change /veh ANKRD19P (11752326_a_at) / RFU OR2T12 /// OR2T33 /// OR2T8 (11738714_s_at) / Fold change /veh OR2T12 /// OR2T33 /// OR2T8 (11738714_s_at) / RFU VCAN (11748164_a_at) / Fold change /veh VCAN (11748164_a_at) / RFU JSRP1 (11732532_at) / Fold change /veh JSRP1 (11732532_at) / RFU KRTAP10-11 (11738290_x_at) / Fold change /veh KRTAP10-11 (11738290_x_at) / RFU MYO3A (11730013_a_at) / Fold change /veh MYO3A (11730013_a_at) / RFU EBF3 (11725865_a_at) / Fold change /veh EBF3 (11725865_a_at) / RFU CAMK2N1 (11719241_x_at) / Fold change /veh CAMK2N1 (11719241_x_at) / RFU C5orf56 (11738088_a_at) / Fold change /veh C5orf56 (11738088_a_at) / RFU OLFML3 (11715873_a_at) / Fold change /veh OLFML3 (11715873_a_at) / RFU LOC100653217 /// NTM (11731650_a_at) / Fold change /veh LOC100653217 /// NTM (11731650_a_at) / RFU MAPK11 (11762145_a_at) / Fold change /veh MAPK11 (11762145_a_at) / RFU FIZ1 (11724087_x_at) / Fold change /veh FIZ1 (11724087_x_at) / RFU OASL (11726364_x_at) / Fold change /veh OASL (11726364_x_at) / RFU SOX15 (11748057_x_at) / Fold change /veh SOX15 (11748057_x_at) / RFU CD79A (11719716_a_at) / Fold change /veh CD79A (11719716_a_at) / RFU HIST1H1D (11736915_at) / Fold change /veh HIST1H1D (11736915_at) / RFU CASKIN2 (11723855_a_at) / Fold change /veh CASKIN2 (11723855_a_at) / RFU LOC730098 (11760151_x_at) / Fold change /veh LOC730098 (11760151_x_at) / RFU OR4N2 (11742367_at) / Fold change /veh OR4N2 (11742367_at) / RFU PRRT2 (11749266_a_at) / Fold change /veh PRRT2 (11749266_a_at) / RFU SNX32 (11753110_a_at) / Fold change /veh SNX32 (11753110_a_at) / RFU CDHR5 (11726645_a_at) / Fold change /veh CDHR5 (11726645_a_at) / RFU RCAN1 (11760418_a_at) / Fold change /veh RCAN1 (11760418_a_at) / RFU FAM167A (11723789_a_at) / Fold change /veh FAM167A (11723789_a_at) / RFU FAM26E (11764081_at) / Fold change /veh FAM26E (11764081_at) / RFU ISYNA1 (11749810_s_at) / Fold change /veh ISYNA1 (11749810_s_at) / RFU ACY1 (11761880_at) / Fold change /veh ACY1 (11761880_at) / RFU 11764098_at / Fold change /veh 11764098_at / RFU SAMD14 (11745864_x_at) / Fold change /veh SAMD14 (11745864_x_at) / RFU NPB (11741838_a_at) / Fold change /veh NPB (11741838_a_at) / RFU TMPRSS6 (11731388_a_at) / Fold change /veh TMPRSS6 (11731388_a_at) / RFU KRTAP10-2 (11738614_at) / Fold change /veh KRTAP10-2 (11738614_at) / RFU ARHGAP8 /// PRR5-ARHGAP8 (11727945_x_at) / Fold change /veh ARHGAP8 /// PRR5-ARHGAP8 (11727945_x_at) / RFU KRTAP5-7 /// NADSYN1 (11734609_at) / Fold change /veh KRTAP5-7 /// NADSYN1 (11734609_at) / RFU RASL12 (11751679_a_at) / Fold change /veh RASL12 (11751679_a_at) / RFU CDKN2B (11736163_a_at) / Fold change /veh CDKN2B (11736163_a_at) / RFU PRF1 (11729649_at) / Fold change /veh PRF1 (11729649_at) / RFU, ZNF638 /// ZNF638-IT1 / Fold change vs veh, ZNF638 /// ZNF638-IT1 / RFU, PANK3 / Fold change vs veh, PANK3 / RFU, SH3YL1 / Fold change vs veh, SH3YL1 / RFU, ZEB2 / Fold change vs veh, ZEB2 / RFU, NRIP1 / Fold change vs veh, NRIP1 / RFU, PTTG1IP / Fold change vs veh, PTTG1IP / RFU, CAPN2 / Fold change vs veh, CAPN2 / RFU, MED14 / Fold change vs veh, MED14 / RFU, SNORA58 / Fold change vs veh, SNORA58 / RFU, C1orf63 / Fold change vs veh, C1orf63 / RFU, LRRFIP1 / Fold change vs veh, LRRFIP1 / RFU, NDUFAF7 / Fold change vs veh, NDUFAF7 / RFU, SLC12A2 / Fold change vs veh, SLC12A2 / RFU, IBTK / Fold change vs veh, IBTK / RFU, ESF1 / Fold change vs veh, ESF1 / Fold change vs veh, TMEM50B / RFU, TAOK1 / Fold change vs veh, TAOK1 / RFU, ACBD3 / Fold change vs veh, ACBD3 / RFU, TMA16 / Fold change vs veh, TMA16 / RFU, RWDD3 / Fold change vs veh, RWDD3 / RFU, BCAT1 / Fold change vs veh, BCAT1 / RFU, EDEM3 / Fold change vs veh, EDEM3 / RFU, TMEM33 / Fold change vs veh, TMEM33 / RFU, WDR75 / Fold change vs veh, WDR75 / RFU, AHCTF1 / Fold change vs veh, AHCTF1 / RFU, TFRC / Fold change vs veh, TFRC / RFU, ZDHHC17 / Fold change vs veh, ZDHHC17 / RFU, NOM1 / Fold change vs veh, NOM1 / RFU, ARL8B / Fold change vs veh, ARL8B / RFU, ZBTB11 / Fold change vs veh, ZBTB11 / RFU, TAMM41 / Fold change vs veh, TAMM41 / RFU, KIAA1704 /// LOC100996395 / Fold change vs veh, KIAA1704 /// LOC100996395 / RFU, ING1 / Fold change vs veh, ING1 / RFU, TRMT61B / Fold change vs veh, TRMT61B / RFU, FUBP3 / Fold change vs veh, FUBP3 / RFU, TP53 / Fold change vs veh, TP53 / RFU, TNKS2 / Fold change vs veh, TNKS2 / RFU, ZFP14 / Fold change vs veh, ZFP14 / RFU, ACTR2 / Fold change vs veh, ACTR2 / RFU, PPP3R1 / Fold change vs veh, PPP3R1 / RFU, PIK3R1 / Fold change vs veh, PIK3R1 / RFU, HNRNPA1 / Fold change vs veh, HNRNPA1 / RFU, RNF170 / Fold change vs veh, RNF170 / RFU, ZNF28 / Fold change vs veh, ZNF28 / RFU, RNGTT / Fold change vs veh, RNGTT / RFU, OGT / Fold change vs veh, OGT / RFU, BRD1 / Fold change vs veh, BRD1 / RFU, MARS / Fold change vs veh, MARS / RFU, ZNF655 / Fold change vs veh, ZNF655 / RFU, FAHD1 / Fold change vs veh, FAHD1 / RFU, BDP1 / Fold change vs veh, BDP1 / RFU, LRRCC1 / Fold change vs veh, LRRCC1 / RFU, ARID1A / Fold change vs veh, ARID1A / RFU, ZNF146 / Fold change vs veh, ZNF146 / RFU, ZNF330 / Fold change vs veh, ZNF330 / RFU, GPN3 / Fold change vs veh, GPN3 / RFU, C9orf123 / Fold change vs veh, C9orf123 / RFU, N4BP2L2 / Fold change vs veh, N4BP2L2 / RFU, ARFIP1 / Fold change vs veh, ARFIP1 / RFU, FAM179B / Fold change vs veh, FAM179B / RFU, BCL10 / Fold change vs veh, BCL10 / RFU, UHRF1BP1L / Fold change vs veh, UHRF1BP1L / RFU, BET1 / Fold change vs veh, BET1 / RFU, CNOT2 / Fold change vs veh, CNOT2 / RFU, ZNF268 / Fold change vs veh, ZNF268 / Fold change vs veh, ZNF507 / RFU, DGCR2 / Fold change vs veh, DGCR2 / RFU, WDSUB1 / Fold change vs veh, WDSUB1 / Fold change vs veh, HSP90B1 /// MIR3652 / RFU, ADSS / Fold change vs veh, ADSS / RFU, GK / Fold change vs veh, GK / RFU, ZNF148 / Fold change vs veh, ZNF148 / RFU, TAF9 / Fold change vs veh, TAF9 / RFU, SLC1A5 / Fold change vs veh, SLC1A5 / RFU, SLMO2 / Fold change vs veh, SLMO2 / RFU, ABCC4 / Fold change vs veh, ABCC4 / RFU, LOC101060439 /// RAP1B / Fold change vs veh, LOC101060439 /// RAP1B / RFU, RFX7 / Fold change vs veh, RFX7 / RFU, GTPBP10 / Fold change vs veh, GTPBP10 / RFU, CNEP1R1 / Fold change vs veh, CNEP1R1 / RFU, BIVM-ERCC5 /// ERCC5 / Fold change vs veh, BIVM-ERCC5 /// ERCC5 / RFU, ILF3 / Fold change vs veh, ILF3 / RFU 11762660_at / Fold change /veh 11762660_at / RFU VCAN (11757783_s_at) / Fold change /veh VCAN (11757783_s_at) / RFU DDX43 (11728927_at) / Fold change /veh DDX43 (11728927_at) / RFU KRT8 (11758188_x_at) / Fold change /veh KRT8 (11758188_x_at) / RFU NKD1 (11759106_at) / Fold change /veh NKD1 (11759106_at) / RFU SRD5A1 (11742802_a_at) / Fold change /veh SRD5A1 (11742802_a_at) / RFU TPSAB1 /// TPSB2 (11721975_s_at) / Fold change /veh TPSAB1 /// TPSB2 (11721975_s_at) / RFU GSTM3 (11746129_a_at) / Fold change /veh GSTM3 (11746129_a_at) / RFU IL23R (11737362_x_at) / Fold change /veh IL23R (11737362_x_at) / RFU TMEM51 (11727254_a_at) / Fold change /veh TMEM51 (11727254_a_at) / RFU PIWIL2 (11732686_x_at) / Fold change /veh PIWIL2 (11732686_x_at) / RFU ORM1 (11744905_x_at) / Fold change /veh ORM1 (11744905_x_at) / RFU CCDC152 (11743942_at) / Fold change /veh CCDC152 (11743942_at) / RFU ECM1 (11717891_a_at) / Fold change /veh ECM1 (11717891_a_at) / RFU IL23R (11748794_a_at) / Fold change /veh IL23R (11748794_a_at) / RFU TNFAIP8L3 (11732012_x_at) / Fold change /veh TNFAIP8L3 (11732012_x_at) / RFU MBOAT4 (11741988_at) / Fold change /veh MBOAT4 (11741988_at) / RFU 11764193_at / Fold change /veh 11764193_at / RFU TMEM53 (11763286_at) / Fold change /veh TMEM53 (11763286_at) / RFU MAGEB2 (11727129_at) / Fold change /veh MAGEB2 (11727129_at) / RFU TMEM200A (11744735_a_at) / Fold change /veh TMEM200A (11744735_a_at) / RFU CCDC152 (11751479_a_at) / Fold change /veh CCDC152 (11751479_a_at) / RFU FAM211A (11726209_a_at) / Fold change /veh FAM211A (11726209_a_at) / RFU RGS16 (11746705_a_at) / Fold change /veh RGS16 (11746705_a_at) / RFU VCAN (11755009_s_at) / Fold change /veh VCAN (11755009_s_at) / RFU RHOB (11743442_s_at) / Fold change /veh RHOB (11743442_s_at) / RFU RGS16 (11720943_a_at) / Fold change /veh RGS16 (11720943_a_at) / RFU RGS16 (11720944_at) / Fold change /veh RGS16 (11720944_at) / RFU, VPS4B / Fold change vs veh, VPS4B / RFU, CREB1 / Fold change vs veh, CREB1 / RFU, DNAJC13 / Fold change vs veh, DNAJC13 / RFU, GNAQ / Fold change vs veh, GNAQ / RFU, CDK5R1 / Fold change vs veh, CDK5R1 / RFU, ZRANB3 / Fold change vs veh, ZRANB3 / RFU, CUL4A / Fold change vs veh, CUL4A / RFU, CCNY / Fold change vs veh, CCNY / RFU, UFL1 / Fold change vs veh, UFL1 / RFU, COG3 / Fold change vs veh, COG3 / RFU, DIAPH2 / Fold change vs veh, DIAPH2 / RFU, SKA2 / Fold change vs veh, SKA2 / RFU, AFF3 / Fold change vs veh, AFF3 / RFU, LMF1 / Fold change vs veh, LMF1 / RFU, IPO11 / Fold change vs veh, IPO11 / RFU, DFFB / Fold change vs veh, DFFB / RFU, FOXP1 / Fold change vs veh, FOXP1 / RFU, CARD8 / Fold change vs veh, CARD8 / RFU, STRN3 / Fold change vs veh, STRN3 / RFU, ADK / Fold change vs veh, ADK / RFU, RASSF2 / Fold change vs veh, RASSF2 / RFU, WIPF1 / Fold change vs veh, WIPF1 / RFU, LARP1B / Fold change vs veh, LARP1B / RFU, RASA1 / Fold change vs veh, RASA1 / RFU, RB1 / Fold change vs veh, RB1 / RFU, PPFIA1 / Fold change vs veh, PPFIA1 / RFU, MAT2A / Fold change vs veh, MAT2A / RFU, CCT5 / Fold change vs veh, CCT5 / RFU, WDR92 / Fold change vs veh, WDR92 / RFU, CUX1 / Fold change vs veh, CUX1 / RFU, TTC7A / Fold change vs veh, TTC7A / RFU, TMEM135 / Fold change vs veh, TMEM135 / RFU, DEPTOR / Fold change vs veh, DEPTOR / RFU, CPM / Fold change vs veh, CPM / RFU, DNAJB6 / Fold change vs veh, DNAJB6 / RFU, CACNA2D3 / Fold change vs veh, CACNA2D3 / RFU, DTX4 / Fold change vs veh, DTX4 / RFU, TFCP2 / Fold change vs veh, TFCP2 / RFU, GMCL1 /// GMCL1P1 / Fold change vs veh, GMCL1 /// GMCL1P1 / RFU, AEBP2 / Fold change vs veh, AEBP2 / RFU, SNHG1 /// SNORD22 /// SNORD25 /// SNORD26 /// SNORD27 /// SNORD28 /// SNORD29 /// SNORD31 / Fold change vs veh, SNHG1 /// SNORD22 /// SNORD25 /// SNORD26 /// SNORD27 /// SNORD28 /// SNORD29 /// SNORD31 / Fold change (Aza/veh), C12orf56 (ProbeSet 11735607_a_at) / Fold change (ACY-1035/veh), C12orf56 (ProbeSet 11735607_a_at) / Fold change (Aza/veh), FGFR1OP (ProbeSet 11751329_s_at) / Fold change (ACY-1035/veh), FGFR1OP (ProbeSet 11751329_s_at) / Fold change (Aza/veh), VPS36 (ProbeSet 11739960_a_at) / Fold change (ACY-1035/veh), VPS36 (ProbeSet 11739960_a_at) / RFU SYPL1 (11715823_x_at) / Fold change /veh SYPL1 (11715823_x_at) / RFU IGFBP7 (11715501_s_at) / Fold change /veh IGFBP7 (11715501_s_at) / RFU REEP3 (11722064_at) / Fold change /veh REEP3 (11722064_at) / RFU IGLL1 (11728026_x_at) / Fold change /veh IGLL1 (11728026_x_at): dose or concentration left out as unconfirmed
Details: ProbeSet 11717308_a_at; LIST B

Nc1ncn([C@@H]2O[C@H](CO)[C@@H](O)[C@H]2O)c(=O)n1 [azacitidine]
Fold change vs veh, WDR75: 1.10
